{
  "source": "paper PMC8214221",
  "about": "“Sequence determinants in the cathelicidin LL-37 that promote inflammation via presentation of RNA to scavenger receptors” (The Journal of Biological Chemistry, 2021)",
  "system": "normal human epidermal keratinocytes (NHEKs)",
  "experiment": "LDH release cytotoxicity assay in keratinocytes",
  "type": "cell-based",
  "settings": "minimal concentration giving 50% LDH release by NHEKs",
  "source_text": "Since LL-34 was the minimal truncation mutant of LL-37 that retained both antimicrobial and immune modulatory activity, we prepared a series of synthetic peptides with sequential substitutions of alanine at each amino acid position of the LL-34 parent peptide (Table 1). We compared the minimum inhibitory concentration (MIC) for the LL-34 parent peptide and the alanine mutants (LL-34 peptides—L1A and R34A) against methicillin-resistant Staphylococcus aureus strain USA300 (Fig. 1A). LL-34 peptides were incubated at concentrations of 0 to 100 μM with bacteria. The minimal concentration at which no growth was observed was noted after 18 h of incubation. […] Because of these changes in the MIC against S. aureus between the mutants, we investigated the effective toxicity profile of the peptides in normal human epidermal keratinocytes (NHEKs) by lactate dehydrogenase (LDH) release assay (Table 1). […] Most other peptides were cytotoxic at a minimal concentration of 10 μM, whereas LL-34—K15A was toxic at a concentration of 2.5 μM.\nLDH cytotoxicity assay was performed according to manufacturer's instructions (Thermo Fisher Scientific). Culture supernatants from keratinocytes were used fresh for LDH assay after experimental treatments.",
  "note": "Residues, ends and D or L forms follow the SMILES beside them.",
  "data": [
    {"smiles": "CC[C@H](C)[C@H](NC(=O)[C@H](CCCCN)NC(=O)[C@H](CCC(=O)O)NC(=O)[C@H](CCCCN)NC(=O)[C@H](CO)NC(=O)[C@H](CCCCN)NC(=O)[C@H](CCCNC(=N)N)NC(=O)[C@H](Cc1ccccc1)NC(=O)[C@H](Cc1ccccc1)NC(=O)[C@H](C)NC(=O)CNC(=O)[C@H](CC(C)C)NC(=O)[C@@H](N)CC(C)C)C(=O)NCC(=O)N[C@@H](CCCCN)C(=O)N[C@@H](CCC(=O)O)C(=O)N[C@@H](Cc1ccccc1)C(=O)N[C@@H](CCCCN)C(=O)N[C@@H](CCCNC(=N)N)C(=O)N[C@H](C(=O)N[C@H](C(=O)N[C@@H](CCC(N)=O)C(=O)N[C@@H](CCCNC(=N)N)C(=O)N[C@H](C(=O)N[C@@H](CCCCN)C(=O)N[C@@H](CC(=O)O)C(=O)N[C@@H](Cc1ccccc1)C(=O)N[C@@H](CC(C)C)C(=O)N[C@@H](CCCNC(=N)N)C(=O)N[C@@H](CC(N)=O)C(=O)N[C@@H](CC(C)C)C(=O)N[C@H](C(=O)N1CCC[C@H]1C(=O)N[C@@H](CCCNC(=N)N)C(=O)O)C(C)C)[C@@H](C)CC)C(C)C)[C@@H](C)CC", "note": "[LL-34—D4A] (H-LLGAFFRKSKEKIGKEFKRIVQRIKDFLRNLVPR-OH; N-terminus and C-terminus assumed)", "values": [
      {"measurement": "Minimal cytotoxic concentration in NHEK (LD50)", "value": 5, "unit": "µM"}
    ]},
    {"smiles": "CC[C@H](C)[C@H](NC(=O)[C@H](CCCCN)NC(=O)[C@H](CCC(=O)O)NC(=O)[C@H](CCCCN)NC(=O)[C@H](CO)NC(=O)[C@H](CCCCN)NC(=O)[C@H](CCCNC(=N)N)NC(=O)[C@H](Cc1ccccc1)NC(=O)[C@H](Cc1ccccc1)NC(=O)[C@H](CC(=O)O)NC(=O)CNC(=O)[C@H](CC(C)C)NC(=O)[C@@H](N)CC(C)C)C(=O)NCC(=O)N[C@@H](CCCCN)C(=O)N[C@@H](CCC(=O)O)C(=O)N[C@@H](Cc1ccccc1)C(=O)N[C@@H](CCCCN)C(=O)N[C@@H](CCCNC(=N)N)C(=O)N[C@H](C(=O)N[C@H](C(=O)N[C@@H](C)C(=O)N[C@@H](CCCNC(=N)N)C(=O)N[C@H](C(=O)N[C@@H](CCCCN)C(=O)N[C@@H](CC(=O)O)C(=O)N[C@@H](Cc1ccccc1)C(=O)N[C@@H](CC(C)C)C(=O)N[C@@H](CCCNC(=N)N)C(=O)N[C@@H](CC(N)=O)C(=O)N[C@@H](CC(C)C)C(=O)N[C@H](C(=O)N1CCC[C@H]1C(=O)N[C@@H](CCCNC(=N)N)C(=O)O)C(C)C)[C@@H](C)CC)C(C)C)[C@@H](C)CC", "note": "[LL-34—Q22A] (H-LLGDFFRKSKEKIGKEFKRIVARIKDFLRNLVPR-OH; N-terminus and C-terminus assumed)", "values": [
      {"measurement": "Minimal cytotoxic concentration in NHEK (LD50)", "value": 5, "unit": "µM"}
    ]},
    {"smiles": "CC[C@H](C)[C@H](NC(=O)[C@H](CCCCN)NC(=O)[C@H](CCC(=O)O)NC(=O)[C@H](CCCCN)NC(=O)[C@H](CO)NC(=O)[C@H](CCCCN)NC(=O)[C@H](CCCNC(=N)N)NC(=O)[C@H](Cc1ccccc1)NC(=O)[C@H](Cc1ccccc1)NC(=O)[C@H](CC(=O)O)NC(=O)CNC(=O)[C@H](CC(C)C)NC(=O)[C@@H](N)CC(C)C)C(=O)NCC(=O)N[C@@H](CCCCN)C(=O)N[C@@H](CCC(=O)O)C(=O)N[C@@H](Cc1ccccc1)C(=O)N[C@@H](CCCCN)C(=O)N[C@@H](CCCNC(=N)N)C(=O)N[C@H](C(=O)N[C@H](C(=O)N[C@@H](CCC(N)=O)C(=O)N[C@@H](CCCNC(=N)N)C(=O)N[C@H](C(=O)N[C@@H](CCCCN)C(=O)N[C@@H](C)C(=O)N[C@@H](Cc1ccccc1)C(=O)N[C@@H](CC(C)C)C(=O)N[C@@H](CCCNC(=N)N)C(=O)N[C@@H](CC(N)=O)C(=O)N[C@@H](CC(C)C)C(=O)N[C@H](C(=O)N1CCC[C@H]1C(=O)N[C@@H](CCCNC(=N)N)C(=O)O)C(C)C)[C@@H](C)CC)C(C)C)[C@@H](C)CC", "note": "[LL-34—D26A] (H-LLGDFFRKSKEKIGKEFKRIVQRIKAFLRNLVPR-OH; N-terminus and C-terminus assumed)", "values": [
      {"measurement": "Minimal cytotoxic concentration in NHEK (LD50)", "value": 10, "unit": "µM"}
    ]}
  ]
}
